Measured values: patent US20250368700A1, “NOVEL PEPTIDE FOR TREATING AN INFECTIOUS DISEASE OR CONDITION” (OMNIX MEDICAL LTD., priority 2022, published 2025)
Values after ≈ are worked out from the molar mass of the structure shown. Where two headings read alike, the source gives them in different places. Where a SMILES comes first, the peptide text is derived from it. Where no end group is shown, it is not given here. [ ]: non-standard residue; d: D form.

Key:
Hsd:ICR (CD-1) mice = test: Safety of intra-nasal (IN) administration in mice (histopathology, mortality); format: in vivo; set-up: key to histopathological findings grade, Spleen / histopathological findings grade, Lungs / histopathological findings grade, Kidneys / histopathological findings grade, Heart / histopathological findings grade, Liver: Grade 0—The tissue appears normal, without any changes at all; Grade 1—Minimal pathological findings; Grade 2—Mild pathological findings; Grade 3—Moderate pathological findings; Grade 4—Severe pathological findings; settings: 100 mg/kg IN
Description: Methods: Adverse effects of OMN71 on mice following intra-Nasal (IN) administration, safety was evaluated by tissue histopathology and mortality. 100 mg/kg of OMN71 in a total volume of 50 μl saline (0.9% NaCl) was administered intranasal (IN) to Hsd:ICR (CD-1) mice (20-25 g) in order to assess the presence any toxic effects. Control mice were administered with saline solution (0.9% NaCl) as vehicle. On the last time-point of each experiment (at T24h), mortality was assessed, the mice were sacrificed by IP injection of Ketamine-Xylazine and spleen, lungs, kidneys, heart and liver were collected for histopathology.
Slides of liver, heart, kidneys, lungs, and spleen were stained with Hematoxylin & Eosin (H&E) and were sent for evaluation. The H&E-stained slides were examined and pictures were taken using microscope equipped with a camera at objective magnification of ×4 and ×10.

[1] = test system: K. pneumoniae strain ATCC® 43816; format: cell-based
[2] = test system: Klebsiella pneumoniae ATCC ® 700603 (Sens.); format: cell-based
Text: (§1) As bacterial growth progresses, OD625 nm values raised.

[3] = test system: Pseudomonas aeruginosa ATCC ® 27853 (Sens.); format: cell-based
Text: as §1

[4] = test system: Escherichia coli ATCC ® 25922 (Sens.); format: cell-based
Text: as §1

[5] = test system: Pseudomonas aeruginosa ATCC ® BAA-2795 (MDR); format: cell-based
Text: as §1

[6] = test system: Escherichia coli ATCC ® BAA-2452 (NDM-1); format: cell-based
Text: as §1

[7] = test system: Escherichia coli ATCC ® BAA-3048 (MDR); format: cell-based
Text: as §1

[8] = test system: Pseudomonas aeruginosa ATCC ® BAA-2797 (MDR); format: cell-based
Text: as §1

[9] = test system: Klebsiella pneumoniae ATCC ® BAA-2146 (NDM-1); format: cell-based
Text: as §1

[10] = test system: K. pneumoniae strain ATCC® 43816; test: Mouse lung infection model induced by K. pneumoniae, lung bacterial burden; format: in vivo; settings: neutropenic CD-1 female mice, 100 mg/kg intranasal two hours post-infection, 24 hours
Description: Neutropenic CD-1 female mice were intratracheally inoculated with K. pneumoniae strain ATCC 43816 (75×10^3 CFU/mouse). Two hours post-inoculation, OMN71-treated group was administered by an intranasal injection of 100 mg/kg and the vehicle group was administered with 0.9% saline solution. Bacterial burden in the lungs was evaluated 24 hours post-infection. Control group of untreated mice n=2 (CTRL ▪), vehicle saline treated mice n=3 (vehicle ●), OMN71-treated group at 100 mg/kg n=3 (OMN71 100 mg/kg ▴).
Methods: Female CD-1 mice, weighing between 20-25 g were inoculated with K. pneumoniae bacteria to induce a lung infection. All animals were monitored during the entire period of the study and clinical signs were recorded. Briefly, eight animals were rendered neutropenic by two intraperitoneal injections of cyclophosphamide (Sigma-Aldrich, Italy) at 150 and 100 mg/kg, four and one day before the infection, respectively. […] The mice were anesthetized by IP injection of Ketamine-Xylazine at low dose and intratracheally inoculated with 50 μL of the bacterial suspension (75×10^3 CFU/mouse). Two hours post-infection (T2h), 100 mg/kg OMN71 in a total volume of 50 μl saline (0.9% NaCl) was administered intranasal. […] The mice were monitored during the entire study and scored for clinical signs of infection where no mortality or morbidity were observed.

Proteinase-K (ProtK) = Proteinase-K (ProtK) (Parengyodontium album, UniProt P06873); format: in vitro ADME; settings: 2.5 μg protein, 2 hours at 37° C.
Description: Methods: Proteinase-K (ProtK) was used to assess the stability of OMN71 versus native OMN70 and Bovine Serum Albumin (BSA). 2.5 μg of each protein were incubated with increasing concentrations of 2.5 and 20 ng of ProtK as specified, for 2 hours at 37° C. Samples were boiled at 100° C. for five minutes and separated on 16.5% polyacrylamide gel. The gel was then stained with Coomassie Blue and excess dye was removed overnight.
Results: FIGS. 3A and 3B depict a Coomassie Blue stained gel detecting the following: FIG. 3A: Lanes 1, 2 and 3: […] of OMN70 subjected to 0/2.5/20 ng of Proteinase-K (ProtK), respectively. Lanes 4, 5 and 6: […] of OMN71 subjected to 0/2.5/20 ng of ProtK, respectively. FIG. 3B: Lanes 7, 8 and 9: […] of Bovine Serum Albumin (BSA) subjected to 0/2.5/20 ng of ProtK, respectively.

Chain of Proteinase-K (ProtK) (P06873 106-384, species assumed): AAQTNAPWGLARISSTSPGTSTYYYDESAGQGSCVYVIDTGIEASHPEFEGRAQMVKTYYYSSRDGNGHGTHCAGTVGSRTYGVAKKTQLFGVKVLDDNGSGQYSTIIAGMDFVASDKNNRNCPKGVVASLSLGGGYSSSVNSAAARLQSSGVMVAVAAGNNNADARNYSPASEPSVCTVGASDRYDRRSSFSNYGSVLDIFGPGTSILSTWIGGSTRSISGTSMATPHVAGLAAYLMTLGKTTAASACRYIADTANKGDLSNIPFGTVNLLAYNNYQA

| Compound | histopathological findings grade, Heart (Hsd:ICR (CD-1) mice; T24 h) | histopathological findings grade, Kidneys (Hsd:ICR (CD-1) mice; T24 h) | histopathological findings grade, Liver (Hsd:ICR (CD-1) mice; T24 h) | histopathological findings grade, Lungs (Hsd:ICR (CD-1) mice; T24 h) | histopathological findings grade, Spleen (Hsd:ICR (CD-1) mice; T24 h) | mortality (Hsd:ICR (CD-1) mice; at T24h) | mortality or other adverse effects (Hsd:ICR (CD-1) mice; monitored for an additional week) | MIC [1] [µg/mL] | MIC values [2] [µg/mL] | MIC values [3] [µg/mL] | MIC values [4] [µg/mL] | MIC values [5] [µg/mL] | MIC values [6] [µg/mL] | MIC values [7] [µg/mL] | MIC values [8] [µg/mL] | MIC values [9] [µg/mL] | bacterial burden reduction compared to the vehicle-treated group [10] [log CFU/lungs] | degradation by ProtK (gel band) (Proteinase-K (ProtK); 2.5 ng ProtK) | degradation by ProtK (gel band) (Proteinase-K (ProtK); 20 ng ProtK) |
| --- | --- | --- | --- | --- | --- | --- | --- | --- | --- | --- | --- | --- | --- | --- | --- | --- | --- | --- | --- |
| CC(C)C[C@@H](NC(=O)[C@H](N)Cc1ccccc1)C(=O)N[C@H](CC(N)=O)C(=O)N[C@H](C)C(=O)N[C@H](CC(C)C)C(=O)N[C@H](CCCCN)C(=O)N[C@H](CC(N)=O)C(=O)N[C@H](Cc1ccccc1)C(=O)N[C@H](C)C(=O)N[C@H](CCCCN)C(=O)N[C@@H](C(=O)N[C@H](C)C(=O)NCC(=O)N[C@H](CCCCN)C(=O)N[C@H](CCCNC(=N)N)C(=O)N[C@H](CC(C)C)C(=O)N[C@H](CCCCN)C(=O)N[C@H](CO)C(=O)N[C@H](CC(C)C)C(=O)N[C@H](CC(C)C)C(=O)N[C@H](CC(N)=O)C(N)=O)[C@H](C)O [OMN71] (H-[dF][dL][dN][dA][dL][dK][dN][dF][dA][dK][dT][dA]G[dK][dR][dL][dK][dS][dL][dL][dN]-NH2; N-terminus assumed) | 0 | 0 | 0 | 0 | 0 | No mortality | no mortality or any other adverse effects | 4 (≈ 1.7 µM) | 8 (≈ 3.41 µM) | 16 (≈ 6.82 µM) | 4 (≈ 1.7 µM) | 4 (≈ 1.7 µM) | 4 (≈ 1.7 µM) | 4 (≈ 1.7 µM) | 16 (≈ 6.82 µM) | 16 (≈ 6.82 µM) | ~1 | – | – |
| CC(C)C[C@@H](NC(=O)[C@H](N)CC(N)=O)C(=O)N[C@H](CC(C)C)C(=O)N[C@H](CO)C(=O)N[C@H](CCCCN)C(=O)N[C@H](CC(C)C)C(=O)N[C@H](CCCNC(=N)N)C(=O)N[C@H](CCCCN)C(=O)NCC(=O)N[C@H](C)C(=O)N[C@@H](C(=O)N[C@H](CCCCN)C(=O)N[C@H](C)C(=O)N[C@H](Cc1ccccc1)C(=O)N[C@H](CC(N)=O)C(=O)N[C@H](CCCCN)C(=O)N[C@H](CC(C)C)C(=O)N[C@H](C)C(=O)N[C@H](CC(N)=O)C(=O)N[C@H](CC(C)C)C(=O)N[C@H](Cc1ccccc1)C(N)=O)[C@H](C)O [OMN72] | – | – | – | – | – | – | – | – | 16 (≈ 6.82 µM) | 64 (≈ 27.3 µM) | 32 (≈ 13.6 µM) | 16 (≈ 6.82 µM) | 32 (≈ 13.6 µM) | 32 (≈ 13.6 µM) | 64 (≈ 27.3 µM) | 32 (≈ 13.6 µM) | – | – | – |
| Bovine Serum Albumin [BSA] | – | – | – | – | – | – | – | – | – | – | – | – | – | – | – | – | – | partially degrade | completely degrade |
| FLNALKNFAKTAGKRLKSLLN-NH2 [OMN70, Cyanophlyctin, reference compound] | – | – | – | – | – | – | – | – | 8 | 16 | 4 | 8 | 8 | 16 | 16 | 16 | – | – | – |
